The text below walks through data of PubChem BioAssay (NCI).

Assay in all cases: NCI-60 cell line screen, 48 h
For assay [1], the system named is SF-539 CNS.
Assay [2] deals with NCI-H460 lung.
In assay [3] the test system is SNB-75 CNS.
Assay [4] relates to SK-MEL-5 melanoma.
In assay [5] the test system is SK-OV-3 ovarian.
Assay [6] deals with UO-31 renal.
Assay [7] has as its system EKVX NSCLC.
Assay [8] concerns NCI-H23 lung.
The test system of assay [9] is HS 578T breast.
Assay [10] has as its system MDA-MB-435.

Molecules are shown by their SMILES.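 Growth conditions: 96-well plates. Treatment: test compound, 48 hours, 5 concentrations. Analysis: linear interpolation between bracketing concentrations; unreached endpoints set to highest concentration. Here, GI50 denotes the concentration required for 50% inhibition of growth. At the TGI there is no net growth.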

For `CCOC(=O)/C=C/c1c[nH]c(=O)[nH]c1=O`, the TGI in assay [1] was above 75 µM; in assay [2], above 75 µM; in assay [3], above 75 µM; in assay [4] it was above 75 µM; in [5], above 61.2 µM; in assay [6], above 75 µM. The TGI in [7] and in assay [8] was above 75 µM in each case.
Turning to `CCCCCCC(=O)c1ccc2ccccc2c1O`, the TGI in assay [1], in assay [2], in [3], in [4], in [5] and in [6] was above 100 µM throughout. The TGI in assay [9], in assay [10], in assay [7] and in [8] was above 100 µM each time.
Turning to `CC(=O)OCc1nnn2c1CCC2`, the TGI in [1], in assay [2], in assay [3], in assay [4], in assay [5] and in assay [6] was above 100 µM throughout. This compound also had a TGI in assay [7] above 100 µM.
As for `C=CCOC1OC(CS(=O)(=O)O)C(OC(C)=O)C(OC(C)=O)C1OC(C)=O` (centres undefined), the TGI in [2], in assay [3], in assay [4], in [5], in assay [6] and in [9] was above 100 µM in each case. In addition, the TGI in assay [10] and in assay [8] was above 100 µM throughout.
With `CCOC(=O)C1=C(C)N(C2OC(COC(C)=O)C(OC(C)=O)C(OC(C)=O)C2OC(C)=O)C(=O)NC1c1ccccc1` (centres undefined), the TGI in [1], in assay [2], in assay [3], in assay [4], in [5] and in [6] was above 100 µM in each case. Further, the TGI in assay [7] and in assay [8] was above 100 µM in each case.
Consider `COc1ccc(OCC(C)(C)O)cc1`, for which the TGI is above 100 µM in assay [1]; above 100 µM in [2]; above 86.9 µM in assay [3]; above 100 µM in assay [4]; above 100 µM in [5]; above 100 µM in assay [6]. Also, the TGI in assay [7] and in assay [8] was above 100 µM each time.
For the compound `c1ccc(N2N=C3N(c4ccccc4)C2N3c2ccccc2)cc1`, the TGI in assay [1] is 74.9 µM; in assay [2] it was above 100 µM; in assay [3] it was 64.5 µM; in assay [4], 63.4 µM; in assay [5], above 100 µM; in assay [6], above 100 µM. Also, the TGI in assay [9] is above 100 µM; in assay [10] it was 31.6 µM; in [7], above 100 µM; in assay [8], above 100 µM.
`COc1ccc(-c2c3c(nc4[nH]c(=S)[nH]c(=S)c24)CCCC3)cc1OC`: the TGI in assay [1] is 28.6 µM; in assay [2], 42.9 µM; in [3] it was 51.2 µM; in [4], 32.6 µM; in assay [5], above 100 µM; in [6] it was above 100 µM. In addition, the TGI in assay [9] is 54.4 µM; in assay [10], above 100 µM; in assay [7], 76.9 µM; in assay [8] it was above 100 µM.
On to `CCCCn1c(C)c2c(c1C)C(=O)N(CCN1CCN(c3ccccc3Cl)CC1)C2=O`, for which the TGI in assay [1] was 38 µM; in assay [2] it was above 100 µM; in assay [3] it was 90.2 µM; in assay [4], 34.9 µM; in assay [5], above 100 µM; in assay [6] it was 43.3 µM. For the same compound, the TGI in assay [9] was above 100 µM; in [10] it was 90.3 µM; in assay [7] it was above 100 µM; in [8] it was 85.4 µM.
Turning to `CCCCCCCCCC[N+](C)(C)C`, the GI50 in assay [1] is 2.17 µM; in assay [2] it was 1.73 µM; in assay [3] it was 1.26 µM; in assay [4], 1.73 µM; in assay [5] it was 2.57 µM; in [6], 4.91 µM. Also, the GI50 is 2.22 µM in [9], 1.75 µM in [10], 3.66 µM in assay [7] and 2 µM in assay [8]. The TGI came out at 5.9 µM in [1]; 3.84 µM in assay [2]; 3.69 µM in assay [3]; 3.26 µM in [4]; 13 µM in assay [5]; 20 µM in assay [6]. Moreover, the TGI was determined as 6.38 µM in assay [9], 4.29 µM in [10], 30.5 µM in assay [7] and 6.34 µM in assay [8].
